The values below come from patent EP1206494B1, “COMPUTATIONAL DESIGN METHODS FOR MAKING MOLECULAR MIMETICS” (SYNT:EM S.A., priority 1999, dated 2001).

For assay [1], the system named is HIV-1-LAI strain. The experiment in a line: Antiviral activity assay on PBMCs infected by HIV isolates (reverse transcriptase in day 7 supernatant). In kind it is cell-based. As to conditions: Human immunodeficiency virus 1, PBMC. The method, then: Mononucleated cells were isolated from peripheral blood of a healthy donor (and seronegative for HIV and hepatitis viruses) with a gradient of Ficoll-Hypaque. The PBMCs were activated by […] of phytohemaglutinine-P (PHA-P, Difco Laboratories, Detroit, USA) during three days, then cultured at 200,000 cells per well in a 96-well plate, in a culture medium A, complemented by 20 IU/ml of recombinant interleukin-2 (rHuIL-2, Roche Products, Mannheim, Germany). Medium A consists of: RPMI cell culture (RPMI 1640, Roche Products), 10% Fetal Calf Serum (FCS, Roche Products complement inactivated by heating at 56°C for 45mn, 2mM L-glutamine (Roche Products) and a solution of three antibiotics (penicillin, streptomycin and neomycin (PSN, LifeTechnologies, Grand Island, JSA). During culture, cells were maintained at +37°C, in a saturated humid atmosphere, under 5% CO2.
PBMCs were infected over 1 hour at 37°C with a 10 000 tissue culture infectious dose 50% (TCID50) of the lymphocytary tropism reference strain HIV-1-LAI. At the end of the incubation, cells were washed twice with medium A. The HIV-1 strain was exclusively amplified, in the Neurovirology Service, with Umbilical Blood Mononucleated Cells (UBMC) activated with PHA-P, and the TCID50 was calculated using the Kärber formula.
The mimetic and the scrambled peptide were dissolved in ultrapure sterile water. Five concentrations were tested (50 µM, 10 µM, 5 µM, 1 µM and 0.5 µM). Antibodies ST40 and 9E8 (provided by the CNRS UMR 9921, Montpellier) were tested at the following concentrations: 100 µg/ml, 10 µg/ml, 1 µg/ml, 100 ng/ml and 10 ng/ml.
(§1) The activities of these compounds were compared to the Q4120 reference antibody and to AZT. […] The anti-HIV activity of AZT was measured at the following concentrations: 10 µM, 1 µM, 100 nM, 10 nM and 1 nM. […]
(§2) All experiments were performed in triplicate. […] The viral replication was measured by dosing the inverse transcriptase activation in the supernatant of the 7th day culture, using a dosing kit Retrosys(r), supplied by Innovagen (Lund, Sweden).

For assay [2], the target named is T1, human recombinant CD4 (Homo sapiens, UniProt P01730).
T1 construct: purchased RepliGen (USA)
The experiment in a line: BIAcore surface plasmon resonance kinetic analysis: binding of soluble CD4 to immobilized mimetic. Here is the method: The human recombinant CD4 used for the kinetic analysis and the biological assays was obtained from RepliGen (USA).
The kinetic parameters, association rate constant (ka) and dissociation rate constant (kd), were determined by surface plasmon resonance (SPR) analysis using BIACORE 2000 (Biacore AB, Uppsala, Sweden). ka and kd were determined using BIAevaluation 3.0 software (BIAcore AB). The apparent equilibrium constant KD is the ratio kd/ka. All experiments were carried out at 25°C.
The free SH group of the lysine side chain extended by a 3-mercaptopropionic acid linker of the mimetic was used to chemically immobilize molecules on a B1 sensor chip (BIAcore AB) following a standard PDEA/EDC/NHS procedure from BIAcore.
The binding kinetic of CD4 to immobilized mimetic was determined by injecting CD4 (1-20 µg/ml, 16-330 nM) in HBS buffer (running buffer) at a flow rate of 30 µl/min.
Background: SPR reads the build-up and loss of mass on a sensor chip optically.

The subject of assay [3] is HIV-1-LAI strain. The assay is classed as cell-based. As to conditions: dose independent, non-linear behavior. Here is the method: Mononucleated cells were isolated from peripheral blood of a healthy donor (and seronegative for HIV and hepatitis viruses) with a gradient of Ficoll-Hypaque. The PBMCs were activated by […] of phytohemaglutinine-P (PHA-P, Difco Laboratories, Detroit, USA) during three days, then cultured at 200,000 cells per well in a 96-well plate, in a culture medium A, complemented by 20 IU/ml of recombinant interleukin-2 (rHuIL-2, Roche Products, Mannheim, Germany). […]
PBMCs were infected over 1 hour at 37°C with a 10 000 tissue culture infectious dose 50% (TCID50) of the lymphocytary tropism reference strain HIV-1-LAI. At the end of the incubation, cells were washed twice with medium A. The HIV-1 strain was exclusively amplified, in the Neurovirology Service, with Umbilical Blood Mononucleated Cells (UBMC) activated with PHA-P, and the TCID50 was calculated using the Kärber formula. […]
as §1, §2

Where a SMILES comes first, the peptide text is derived from it. Bridges are numbered along the chain shown (N, C = ends). Mpa = O=C(O)CCS

For `Cc1cn([C@H]2C[C@H](N=[N+]=[N-])[C@@H](CO)O2)c(=O)[nH]c1=O` [AZT], in assay [1], the inhibition – broadly, the change of the read-out against control, counted positive when it falls – at 0.001 µM is 66 ± 5%; the inhibition at 0.01 µM was found to be 74 ± 13%; 0.1 µM produced 100% inhibition.
With `CC(=O)N[C@@H](C)C(=O)N[C@@H](CCCNC(=N)N)C(=O)N[C@@H](CCCNC(=N)N)C(=O)N1CCC[C@H]1C(=O)N[C@H]1CCCCNC(=O)[C@@H]2CCCN2C(=O)CNC(=O)[C@H](Cc2ccc(O)cc2)NC(=O)[C@H](C)NC(=O)[C@H](C(C)C)NC(=O)[C@H](Cc2c[nH]c3ccccc23)NC(=O)[C@@H]2CCCN2C(=O)CNC(=O)[C@H](Cc2c[nH]c3ccccc23)NC(=O)[C@H](C(C)C)NC(=O)[C@H](CC(N)=O)NC(=O)[C@@H]2CCCN2C(=O)[C@H](Cc2c[nH]cn2)NC(=O)[C@H](CC(N)=O)NC(=O)[C@H](CCCCNC(=O)CCS)NC(=O)[C@H](C(C)C)NC(=O)[C@H](Cc2ccc(O)cc2)NC(=O)[C@@H]2CCCN2C(=O)[C@H](C)NC(=O)[C@H](CCCNC(=N)N)NC(=O)[C@H](Cc2ccc(O)cc2)NC(=O)[C@H](Cc2ccccc2)NC1=O` [Mk3Tyr-long1SH] (Ac-ARRPKFYRAPYVK(Mpa)NHPNVWGPWVAYGP; lactam 5-C), the kon in assay [2] (immobilized mimetic and soluble CD4, 25°C, read-out: ka) is 82600 M⁻¹ s⁻¹. The Kd (commonly the concentration at which binding is half-saturated) in assay [2] (ratio kd/ka, read-out: calculated KD) is 3.2 nM.
Take `CC[C@H](C)[C@H](NC(C)=O)C(=O)N[C@@H](Cc1c[nH]c2ccccc12)C(=O)N[C@H](C(=O)N[C@H]1CCCCNC(=O)CNC(=O)[C@H](Cc2c[nH]c3ccccc23)NC(=O)[C@H](C(C)C)NC(=O)[C@@H]2CCCN2C(=O)[C@H](CCCNC(=N)N)NC(=O)[C@H](C)NC(=O)[C@H](CC(N)=O)NC(=O)[C@@H]2CCCN2C(=O)[C@H](C)NC(=O)[C@H](CCCNC(=N)N)NC(=O)[C@@H]2CCCN2C(=O)CNC(=O)[C@H](Cc2ccc(O)cc2)NC(=O)[C@H](Cc2ccccc2)NC(=O)[C@H](CS)NC(=O)[C@H](CCCNC(=N)N)NC(=O)[C@H](CC(N)=O)NC(=O)[C@H](Cc2ccc(O)cc2)NC(=O)[C@@H]2CCCN2C(=O)[C@H](C(C)C)NC(=O)[C@H](Cc2c[nH]cn2)NC(=O)[C@@H]2CCCN2C(=O)[C@H](C)NC1=O)C(C)C` [scrambled peptide] (Ac-IWVKAPHVPYNRCFYGPRAPNARPVWG; lactam 4-C): in assay [3], the “anti-retroviral activity (in words)” value is given as “within the background noise”.
